In PubChem BioAssay (NCI):
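Here, GI50 denotes the concentration required for 50% inhibition of growth. Definition used: TGI = concentration required for complete inhibition of growth.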

Tests used:
Assay in all cases: NCI anticancer screen, dose series, 384-well format
[1] = tested on: 786-0 renal
[2] = tested on: A498 renal
[3] = tested on: A549 NSCLC
[4] = tested on: ACHN renal
[5] = tested on: BT-549 breast
[6] = tested on: CAKI-1 renal
[7] = tested on: CCRF-CEM leukemia
[8] = tested on: COLO 205 colon
[9] = tested on: EKVX NSCLC
[10] = tested on: HCC-2998 colon
[11] = tested on: HCT-116 colon
[12] = tested on: HCT-15 colon
[13] = tested on: HL-60(TB) leukemia
[14] = tested on: HOP-62 NSCLC
[15] = tested on: HS 578T breast
[16] = tested on: HT29 colon
[17] = tested on: IGROV1 ovarian
[18] = tested on: K-562 leukemia
[19] = tested on: KM12 colon
[20] = tested on: LOX IMVI melanoma
[21] = tested on: M14 melanoma
[22] = tested on: MALME-3M melanoma
[23] = tested on: MDA-MB-231 breast
[24] = tested on: MDA-MB-435 melanoma
[25] = tested on: MDA-MB-468 breast
[26] = tested on: MOLT-4 leukemia
[27] = tested on: NCI-H226 lung
[28] = tested on: NCI-H23 lung
[29] = tested on: NCI-H322M lung
[30] = tested on: NCI-H460 NSCLC
[31] = tested on: NCI-H522 lung
[32] = tested on: NCI/ADR-RES ovarian
[33] = tested on: OVCAR-3 ovarian
[34] = tested on: OVCAR-4 ovarian
[35] = tested on: OVCAR-5 ovarian
[36] = tested on: OVCAR-8 ovarian
[37] = tested on: PC-3 prostate
[38] = tested on: RPMI-8226 leukemia
[39] = tested on: RXF 393 renal
[40] = tested on: SF-268 CNS
[41] = tested on: SF-295 CNS
[42] = tested on: SF-539 CNS
[43] = tested on: SK-MEL-2 melanoma
[44] = tested on: SK-MEL-28 melanoma
[45] = tested on: SK-MEL-5 melanoma
[46] = tested on: SK-OV-3 ovarian
[47] = tested on: SN12C renal
[48] = tested on: SW-620 colon
[49] = tested on: T-47D breast
[50] = tested on: U251 glioblastoma
[51] = tested on: UACC-257 melanoma
[52] = tested on: UACC-62 melanoma
[53] = tested on: UO-31 renal

CS(=O)(=O)Nc1cc(-c2ccc3ncnc(Nc4ccc(F)c(Cl)c4)c3c2)cnc1Cl
GI50 [1]: 1.35 µM | TGI [1]: 4.82 µM | GI50 [2]: 0.905 µM | TGI [2]: 4.06 µM | GI50 [3]: 1.37 µM | TGI [3]: 2.84 µM | GI50 [4]: 1.8 µM | TGI [4]: > 100 µM | GI50 [5]: 0.573 µM | TGI [5]: 2.34 µM | GI50 [6]: 0.492 µM | TGI [6]: 2.02 µM | GI50 [7]: 0.166 µM | TGI [7]: 0.466 µM | GI50 [8]: 1.21 µM | TGI [8]: 2.99 µM | GI50 [9]: 0.498 µM | TGI [9]: 2.06 µM | GI50 [10]: 1.18 µM | TGI [10]: 2.62 µM | GI50 [11]: 1.14 µM | TGI [11]: 2.64 µM | GI50 [12]: 0.885 µM | TGI [12]: 3.14 µM | GI50 [13]: 0.158 µM | TGI [13]: 1.06 µM | GI50 [14]: 1.43 µM | TGI [14]: 5.19 µM | GI50 [15]: 0.501 µM | TGI [15]: 2.31 µM | GI50 [16]: 1.11 µM | TGI [16]: 2.52 µM | GI50 [17]: 0.154 µM | TGI [17]: 0.471 µM | GI50 [18]: 1.52 µM | TGI [18]: 10.6 µM | GI50 [19]: 2.86 µM | TGI [19]: 19.9 µM | GI50 [20]: 1.22 µM | TGI [20]: 2.56 µM | GI50 [21]: 1.14 µM | TGI [21]: 4 µM | GI50 [22]: 0.293 µM | TGI [22]: 1.64 µM | GI50 [23]: 2.33 µM | TGI [23]: > 100 µM | GI50 [24]: 1.38 µM | TGI [24]: 7.87 µM | GI50 [25]: 0.253 µM | TGI [25]: 0.769 µM | GI50 [26]: 0.16 µM | TGI [26]: 0.348 µM | GI50 [27]: 1.44 µM | TGI [27]: 13.4 µM | GI50 [28]: 1.15 µM | TGI [28]: 4.03 µM | GI50 [29]: 1.19 µM | TGI [29]: 3.36 µM | GI50 [30]: 1.01 µM | TGI [30]: 3.84 µM | GI50 [31]: 0.547 µM | TGI [31]: 2.36 µM | GI50 [32]: 3.6 µM | TGI [32]: 40.3 µM | GI50 [33]: 0.457 µM | TGI [33]: 1.85 µM | GI50 [34]: 1.22 µM | TGI [34]: 4.45 µM | GI50 [35]: 0.939 µM | TGI [35]: 4.55 µM | GI50 [36]: 1.91 µM | TGI [36]: 10.1 µM | GI50 [37]: 0.872 µM | TGI [37]: 2.28 µM | GI50 [38]: 0.37 µM | TGI [38]: 1.58 µM | GI50 [39]: 0.45 µM | TGI [39]: 1.96 µM | GI50 [40]: 1.42 µM | TGI [40]: 2.9 µM | GI50 [41]: 1.29 µM | TGI [41]: 2.93 µM | GI50 [42]: 1.48 µM | TGI [42]: 5.05 µM | GI50 [43]: 1.2 µM | TGI [43]: 2.55 µM | GI50 [44]: 0.728 µM | TGI [44]: 8.86 µM | GI50 [45]: 1.03 µM | TGI [45]: 2.22 µM | GI50 [46]: 0.635 µM | TGI [46]: 3.32 µM | GI50 [47]: 0.524 µM | TGI [47]: 5.25 µM | GI50 [48]: 1.65 µM | TGI [48]: 3.84 µM | GI50 [49]: 0.0855 µM | TGI [49]: 0.548 µM | GI50 [50]: 0.691 µM | TGI [50]: 2.11 µM | GI50 [51]: 1.36 µM | TGI [51]: 5.54 µM | GI50 [52]: 1.04 µM | TGI [52]: 2.55 µM | GI50 [53]: 0.639 µM | TGI [53]: 2.42 µM
